Test results from ChEMBL document CHEMBL3259794, “Towards the discovery of drug-like epigallocatechin gallate analogs as Hsp90 inhibitors” (Bioorg Med Chem Lett, 2014).
pIC50: −log10 of the molar value.

Molecular target: T1, Heat shock protein HSP 90-beta (Homo sapiens, UniProt P08238)
Test: Inhibition of HSP90 (unknown origin) by luciferase refolding assay

T1 sequence (P08238 whole entry): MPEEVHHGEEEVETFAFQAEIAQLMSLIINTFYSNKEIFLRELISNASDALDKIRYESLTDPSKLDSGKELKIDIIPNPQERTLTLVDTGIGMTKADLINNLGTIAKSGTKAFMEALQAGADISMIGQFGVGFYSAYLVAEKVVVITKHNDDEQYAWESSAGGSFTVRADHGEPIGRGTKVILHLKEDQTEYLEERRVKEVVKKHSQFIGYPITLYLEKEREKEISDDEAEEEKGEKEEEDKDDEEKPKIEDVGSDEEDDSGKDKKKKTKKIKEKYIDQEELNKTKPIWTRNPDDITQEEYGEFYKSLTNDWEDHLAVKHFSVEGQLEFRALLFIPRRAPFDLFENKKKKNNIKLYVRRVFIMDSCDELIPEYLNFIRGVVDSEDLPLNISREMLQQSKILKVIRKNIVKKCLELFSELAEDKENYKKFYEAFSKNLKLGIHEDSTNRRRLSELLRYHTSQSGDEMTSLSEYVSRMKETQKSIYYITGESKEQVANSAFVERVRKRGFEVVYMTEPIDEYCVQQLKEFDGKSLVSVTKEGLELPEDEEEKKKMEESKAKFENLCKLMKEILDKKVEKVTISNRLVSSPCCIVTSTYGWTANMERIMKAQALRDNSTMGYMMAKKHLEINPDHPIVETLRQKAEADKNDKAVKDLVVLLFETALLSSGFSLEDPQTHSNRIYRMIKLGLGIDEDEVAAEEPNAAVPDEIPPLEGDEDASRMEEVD

pIC50	SMILES
4.19	O=C(O[C@@H]1Cc2c(O)cc(O)cc2O[C@@H]1c1ccc(O)c(O)c1)[C@H]1CC[C@@H](F)CC1
4.46	O=C(O[C@@H]1Cc2ccccc2O[C@@H]1c1ccccc1)c1cc(O)c(O)c(O)c1 (racemic)
4.12	O=C(N[C@@H]1Cc2c(O)cc(O)cc2O[C@@H]1c1cc(O)c(O)c(O)c1)c1ccccc1
4.09	O=C(O[C@@H]1Cc2c(O)cc(O)cc2O[C@@H]1c1ccc(O)c(O)c1)C1CCCCC1
4.01	O=C(O[C@H]1Cc2c(O)cc(O)cc2O[C@@H]1c1ccc(O)c(O)c1)C1CCCCC1
3.36	O=C(O[C@@H]1Cc2c(O)cc(O)cc2O[C@@H]1c1ccc(O)c(O)c1)[C@H]1CC[C@H](O)CC1
4.62	O=C(O[C@@H]1Cc2c(O)cc(O)cc2O[C@@H]1c1cc(O)c(O)c(O)c1)c1ccccc1
4.36	O=S(=O)(N[C@@H]1Cc2c(O)cc(O)cc2O[C@@H]1c1cc(O)c(O)c(O)c1)c1ccccc1
4.39	O=C(O[C@@H]1Cc2c(O)cc(O)cc2O[C@@H]1c1cc(O)c(O)c(O)c1)c1ccc(F)cc1
4.52	O=C(O[C@@H]1Cc2c(O)cc(O)cc2O[C@@H]1c1cc(O)c(O)c(O)c1)C1CCCCC1
3.51	O=C(O[C@@H]1Cc2c(O)cc(O)cc2O[C@@H]1c1ccc(O)c(O)c1)[C@H]1CC[C@@H](O)CC1
4.24	O=C(O[C@@H]1Cc2c(O)cc(O)cc2O[C@@H]1c1cc(O)c(O)c(O)c1)c1ccc(F)c(F)c1
4.16	O=C(O[C@@H]1Cc2c(O)cc(O)cc2O[C@@H]1c1ccc(O)c(O)c1)[C@H]1CC[C@H](F)CC1
3.92	O=C(O[C@H]1Cc2c(O)cc(O)cc2O[C@@H]1c1ccccc1)c1ccccc1 (racemic)
3.55	O=C(O[C@H]1Cc2c(O)cc(O)cc2O[C@@H]1c1ccc(O)c(O)c1)[C@H]1CC[C@@H](O)CC1
4.20	O=C(O[C@@H]1Cc2c(O)cc(O)cc2O[C@@H]1c1ccccc1)c1ccccc1 (racemic)
3.39	O=C(O[C@@H]1Cc2c(O)cc(O)cc2O[C@@H]1c1ccc(O)c(O)c1)C1CC1
3.96	O=C(O[C@H]1Cc2c(O)cc(O)cc2O[C@@H]1c1ccc(O)c(O)c1)c1ccccc1
3.82	O=C(O[C@H]1Cc2c(O)cc(O)cc2O[C@@H]1c1ccccc1)c1cc(O)c(O)c(O)c1 (racemic)
4.19	O=C(O[C@@H]1Cc2c(O)cc(O)cc2O[C@@H]1c1cc(O)c(O)c(O)c1)c1ccncc1

SMILES	pIC50
O=C(O[C@@H]1Cc2c(O)cc(O)cc2O[C@H]1c1cc(O)c(O)c(O)c1)c1cc(O)c(O)c(O)c1 [GALLOCATECHIN GALLATE]	4.47
O=C(O[C@@H]1Cc2c(O)cc(O)cc2O[C@@H]1c1cc(O)c(O)c(O)c1)c1cc(O)c(O)c(O)c1 [EPIGALOCATECHIN GALLATE]	3.81

Molecular target: T1, Heat shock protein HSP 90-beta
Test: Ratio of EGCG IC50 to compound IC50 for HSP90 (unknown origin)

Ratio IC50	SMILES
3	O=S(=O)(N[C@@H]1Cc2c(O)cc(O)cc2O[C@@H]1c1cc(O)c(O)c(O)c1)c1ccccc1
